Measurements published in US10308938B2, “Compositions and methods to activate or inhibit toll-like receptor signaling” (priority 2014, dated 2019).
Entries after “also recorded” stand apart in the source; their conditions may differ.

How the values were obtained:
Format in all cases: cell-based, human
memory T cells = assay: IMQ pretreatment, washout, rest and restimulation with anti-CD3 and anti-CD28; details: IMQ 2 hours, 12 hours rest, anti-CD3 and anti-CD28
Description: Enzyme-linked immunosorbent assay.
To determine if pretreatment of CD4^+ T cells with IMQ would be sufficient to diminish their subsequent cytokine secretion and proliferative response to a full stimulation, memory T cells were pre-treated with IMQ for 2 hours and rested for 12 hours after washout to remove traces of IMQ and then stimulated with anti-CD3 and anti-CD28 for 3 days.

NFAT1 = NFAT1 dephosphorylation, Western blot; details: 0, 45 and 90 minutes; confirmed with phospho-specific antibody, 40 minutes
Description: Western blotting. Total protein extracts were isolated with M-PER protein extraction kit (Thermo Scientific) and quantified with a BCA kit (Thermo Scientific). 20 μg of protein extract were loaded per lane, separated on a 10% SDS-PAGE gel and transferred to a nitrocellulose membrane. anti-NFAT1 and anti-β-actin were obtained from Cell Signaling Technology. Anti-pNFAT1 (Ser213/217/229) antibody was obtained from Santa Cruz Biotechnology (Dallas, Tex.). Primary antibodies were detected by secondary anti-rabbit-HRP-conjugated (Cell Signaling Technology) and images were obtained in a CCD camera instrument. Bands were quantified with QuantityOne software.
An immediate consequence of increased concentration of intracellular calcium is the activation of the nuclear factor of activated T-cells (NFAT1), a transcription factor that is highly phosphorylated in resting cells and becomes dephosphorylated by the calcium/calmodulin-dependent phosphatase calcineurin when the concentration of intracellular calcium is increased. To examine whether IMQ stimulation induced the dephosphorylation of NFAT1, we stimulated CD4^+ T cells with IMQ and purified total protein extracts at 0, 45 and 90 minutes (FIG. 25A).

CD4^+ T cells [1] = assay: Intracellular cytokine staining after PMA and ionomycin restimulation; details: increasing doses of IMQ; day 4, 4 hour PMA and ionomycin
Description: Cell activation and intracellular staining. T populations were stimulated with 1 μg/ml anti-CD3, 1 μg/ml anti-CD28 and 10 U/ml IL-2 in the presence or absence of TLR ligands. […] For both extracellular and intracellular stainings, LIVE/DEAD reagent (Molecular Probes) was used to exclude dead cells before surface staining. […] Samples were run on a BD Fortessa instrument and analyzed with FlowJo (TreeStar).

CD4^+ T cells [2] = assay: Cytokine gene expression in stimulated CD4+ T cells, TaqMan real-time PCR; details: 12 hours after activation
From the text: Quantification of mRNA expression levels by RT-PCR. RNA was isolated using QIAGEN RNeasy Micro Plus Kit (QIAGEN, Valencia, Calif.), following manufacturer's guidelines and converted to cDNA by reverse transcription (RT) with random hexamers and Multiscribe RT (TQMN, Reverse Transcription Reagents; Applied Biosystems, Foster City, Calif.). For mRNA gene expression assays, probes were purchased from Applied Biosystems (Table 2) and the reactions were set up following manufacturer's guidelines and run on a StepOne Real-Time PCR System (Applied Biosystems). Values are represented as the difference in Ct values normalized to β2-microglobulin for each sample as per the following formula: Relative RNA expression=(2^−dCt)×1000.

CD4^+ T cells [3] = assay: Intracellular calcium measurement (INDO-1AM)
Description: Intracellular calcium measurements. Ex vivo isolated CD4^+ T cells were labeled with 5 μM INDO-1AM for one hour at 37° C. in PBS, 1 mM Ca^2+. Cells were washed to remove traces of INDO-1AM, resuspended in buffer at 10^6 cells/ml and incubated for 30 minutes at 37° C. before analysis. When necessary, IRS661 was added at the indicated concentration during the 30 minute incubation. For acquisition, the sample was acquired for approximately 3 minutes to obtain basal levels of calcium and subsequently IMQ or other reagents were added at the indicated concentrations. Samples were acquired for a minimum of 10 minutes on a BD Fortessa instrument and analysed with FlowJo software.

CD4^+ T cells [4] = assay: Phosphorylation status of signaling molecules by flow cytometry; Jun gene expression
From the text: TLR7 signaling has predominantly been studied in APC where it is linked to IRF7, NFκB and JNK activation through either MyD88/IRAK4-dependent or -independent pathways. In order to examine the consequences of TLR7 signaling on CD4^+ T cells in relation to ‘conventional’ TLR signaling, ex vivo isolated CD4^+ T cells from healthy individuals were stimulated with IMQ and the phosphorylation status of IRAK4, JNK, NFkB (p65), p38 MAPK and IRF7 was examined by flow cytometry (FIG. 31A). […] One of the targets that are phosphorylated by activated JNK is Jun, a component of AP-1, which is an essential transcription factor involved in costimulatory signal transduction. It was determined if inhibition of JNK activity by IMQ could explain, at least in part, the anergic phenotype observed in CD4^+ T cells after IMQ stimulation in the presence of full stimulation with TCR and costimulatory signals. To test this hypothesis, CD4^+ T cells were stimulated with PMA and Ionomycin in the presence or absence of IMQ, and the phosphorylation status of JNK and Jun was examined at different time points. NFκB and p38 were used as positive controls (FIGS. 31B and 31C).

CD4^+ T cells [5] = assay: Expression of activation markers on stimulated CD4+ T cells; details: 48 hours after activation
From the text: Cell activation and intracellular staining.

[6] = with PMA and Ionomycin stimulation
[7] = with PMA and Ionomycin stimulation, listed as IMQ

## CC(C)Cn1cnc2c(N)nc3ccccc3c21 [Imiquimod]
Memory T cells
  IFNγ production after restimulation: significantly decreased
  IL-2 production after restimulation: significantly decreased
NFAT1
  phosphorylation state of NFAT1: dephosphorylated
CD4^+ T cells [1]
  frequency of cytokine-producing cells: diminished in a dose-dependent manner
CD4^+ T cells [2]
  induction of IFNγ gene expression: significant decrease
  induction of IL-2 gene expression: significant decrease
  induction of IL-4 gene expression: significant decrease
CD4^+ T cells [3]
  duration of the increase in intracellular calcium concentration: at least 20 minutes
CD4^+ T cells [3]; INDO-1AM ratio over time
  intracellular calcium concentration: significant and sustained (maintained for at least 20 minutes, FIGS. 23A and 23B) increase
CD4^+ T cells [4]; IMQ alone vs vehicle
  phosphorylation of IRAK4: induced
  phosphorylation of IRF7: induced
  phosphorylation of NFκB: induced
  phosphorylation of p38: induced
CD4^+ T cells [4]; IMQ alone vs vehicle, basal levels
  phosphorylated JNK: decreased the basal levels
CD4^+ T cells [4]; after stimulation
  Jun gene expression: decreased
CD4^+ T cells [4]; [6]
  NFκB phosphorylation: did not show an additive effect
  p38 phosphorylation levels: further increased
CD4^+ T cells [4]; [7]
  JNK phosphorylation: inhibited; also recorded: decreased
  Jun phosphorylation: decreased
CD4^+ T cells [5]
  expression of activation marker CD25: inhibited
CD4^+ T cells [5]; listed as IMQ
  expression of activation marker CD69: inhibited; also recorded: decrease
  expression of activation marker CD137: inhibited; also recorded: decrease
